Measurements published in patent US20050100617A1, “Method for improving age-related physiological deficits and increasing longevity” (priority 2001, published 2005).

Test system: skeletal muscle (gastrocnemius) gene expression
Assay: Gene expression profiling in skeletal muscle, short-term (3 months) dietary intervention in young mice
Assay type: in vivo
Conditions: 3 months treatment
Procedure: For each target gene, the fold change is calculated as follows: [Expression obtained with the experimental diet] divided by [Expression obtained with control diet]. Consequently, fold changes of all target genes are equal to 1 (one) for the control diet. Thus, fold changes refers to the modulation of expression of a given target gene in muscle tissue after 3 months feeding with an experimental diet, for example, diets B, C, D, or F, when compared to the expression of the same gene in muscle tissue of the control group (diet A).
Dietary intervention was of 3 months, all animal groups were fed Ad libitum except for the group of caloric restricted mice which as fed 67% of the daily food consumed by the control Ad libitum group. Animal weight was measured once a week.
The effect of short and long nutritional intervention was investigated. The short-term dietary interventions with diet A, B, C, D and F was initiated in young mice and lasted for three months. In a similar way, long-term interventions were initiated at three months of age for the following diets A and B and D and lasted twenty-one months.
Male mice C57/B16 were obtained from Iffa credo (France) at 9 weeks of age. Upon arrival mice were housed by groups of 6 animals. After 3 weeks adaptation, mice (12 weeks old) were randomized 6 groups (A to F) of 12 mice each and housed individually. Dietary intervention was of 3 months; mice had free access to water and were submitted to 12 hours light and dark cycles.
The control diet (diet A) composed of 18% proteins (soy and whey), 11% fat (soybean oil), 59% carbohydrates (starch+sucrose) and 10% cellulose was supplemented with either a cocktail of antioxidants comprising vitamin C, vitamin E, grape seed extract and cysteine (diet C) and/or L-camitine (diet D and F respectively). For caloric restriction (diet B) fat, starch and sucrose were reduced to provide 67% of the daily calorie consumption of the Ad-lib control group while providing 100% for proteins, minerals and vitamins. These diets are as follows: • Diet A—Control: 18% proteins (soy and whey), 11% fat, 59% carbohydrates, 5% cellulose. • Diet B—Caloric restriction: 18% proteins (soy and whey), 7.7% fat, 32.5% carbohydrates, 5% cellulose • Diet C—Cocktail of antioxidants : Diet A+0.19% vit C, 0.03% vit E, 0.075% grape seed extract, 0.4% cysteine. • Diet D: Carnitine and Antioxidants: Diet A+0.3% L- camitine+cocktail of antioxidants of diet C. • Diet F: Carnitine: Diet A+0.3% L- carnitine
Mice were decapitated and dissected rapidly. Skeletal muscles (gastrocnemius) were immersed in RNAlatter (Ambion) and frozen at −80° C. until use. For RNA extraction, muscles were homogenized with ceramic beads (FastPrep, Q-Biogene) and the RNA extracted with Totally RNA kit (Ambion). The quality of the RNA was checked by Agilent technology. RNA pools from four mice each were created and hybridized to Affymetrix Murine U74Av2 high-density oligonucleotide microarrays.
The Global Error Assessment (GEA) methodology was used to select differentially expressed genes in the present invention. See Bioinformatics, Vol. 20, No. 16 (Oxford University Press 2004) pp. 2726-2737, the content of which is hereby incorporated by reference thereto. The goal was to select genes with statistically significant differential expression between treatments and ages of the mice of the study.

SMILES: C[N+](C)(C)C[C@H](O)CC(=O)[O-] [Carnitine, L-carnitine]
- Fold Changes 0610013E23Rik (RIKEN cDNA 0610013E23 gene): 0.6 fold
- Fold Changes 2010012F05Rik (RIKEN cDNA 2010012F05 gene): 0.8 fold
- Fold Changes 2210419D22Rik (RIKEN cDNA 2210419D22 gene): 0.8 fold
- Fold Changes 2310016A09Rik (RIKEN cDNA 2310016A09 gene): 0.7 fold
- Fold Changes 2310073E15Rik (RIKEN cDNA 2310073E15 gene): 1.2 fold
- Fold Changes 2610034N03Rik (RIKEN cDNA 2610034N03 gene): 0.5 fold
- Fold Changes 2700059D21Rik (RIKEN cDNA 2700059D21 gene): 0.5 fold
- Fold Changes 3110038L01Rik (RIKEN cDNA 3110038L01 gene): 1.4 fold
- Fold Changes 4732477C12Rik (RIKEN cDNA 4732477C12 gene): 1.2 fold
- Fold Changes 5730454B08Rik (RIKEN cDNA 5730454B08 gene): 0.8 fold
- Fold Changes 5730497N03Rik (RIKEN cDNA 5730497N03 gene): 0.2 fold
- Fold Changes 6330407G11Rik (RIKEN cDNA 6330407G11 gene): 0.6 fold
- Fold Changes 6720463E02Rik (RIKEN cDNA 6720463E02 gene): 1.3 fold
- Fold Changes Actb (actin, beta, cytoplasmic): 1.4 fold
- Fold Changes Akt1s1 (AKT1 substrate 1 (proline-rich)): 1.4 fold
- Fold Changes Aldh2 (aldehyde dehydrogenase 2, mitochondrial): 1.7 fold
- Fold Changes Anp32e (acidic (leucine-rich) nuclear phosphoprotein 32 family, member E): 0.6 fold
- Fold Changes Apobec2 (apolipoprotein B editing complex 2): 0.5 fold
- Fold Changes Arid1a (AT rich interactive domain 1A (Swi1 like)): 0.6 fold
- Fold Changes Arpc2 (actin related protein 2/3 complex, subunit 2): 0.6 fold
- Fold Changes Atp1b2 (ATPase, Na+/K+ transporting, beta 2 polypeptide): 4.1 fold
- Fold Changes Atp13a (ATPase type 13A): 0.7 fold
- Fold Changes Birc4 (baculoviral IAP repeat-containing 4): 5.9 fold
- Fold Changes C4 (complement component 4 (within H-2S)): 0.6 fold
- Fold Changes Camk2a (calcium/calmodulin-dependent protein kinase II alpha): 4.6 fold
- Fold Changes Capza2 (capping protein (actin filament) muscle Z-line, alpha 2): 0.7 fold
- Fold Changes Capzb (capping protein (actin filament) muscle Z-line, beta): 0.6 fold
- Fold Changes Car4 (carbonic anhydrase 4): 2.3 fold
- Fold Changes Cbfb (core binding factor beta): 0.7 fold
- Fold Changes Ccl9 (chemokine (C-C motif) ligand 9): 0.5 fold
- Fold Changes Cd97 (CD97 antigen): 5.4 fold
- Fold Changes Cd164 (CD164 antigen): 0.8 fold
- Fold Changes Cdh10 (cadherin 10): 0.4 fold
- Fold Changes Cebpd (CCAAT/enhancer binding protein (C/EBP), delta): 0.5 fold
- Fold Changes Copb2 (coatomer protein complex, subunit beta 2 (beta prime)): 0.7 fold
- Fold Changes Cpd (carboxypeptidase D): 1.9 fold
- Fold Changes D8Ertd69e (DNA segment, Chr 8, ERATO Doi 69, expressed): 1.2 fold
- Fold Changes D19Ertd678e (DNA segment, Chr 19, ERATO Doi 678, expressed): 5.2 fold
- Fold Changes Ddb1 (damage specific DNA binding protein 1): 0.7 fold
- Fold Changes Deb1 (differentially expressed in B16F10 1): 0.8 fold
- Fold Changes Dyrk1a (dual-specificity tyrosine-(Y)-phosphorylation regulated kinase 1a): 1.8 fold
- Fold Changes E030006K04Rik (RIKEN cDNA E030006K04 gene): 2.9 fold
- Fold Changes Eif2s3x (eukaryotic translation initiation factor 2, subunit 3, structural gene X-linked): 0.7 fold
- Fold Changes Eif4ebp1 (eukaryotic translation initiation factor 4E binding protein 1): 0.6 fold
- Fold Changes Eif4ebp2 (eukaryotic translation initiation factor 4E binding protein 2): 0.6 fold
- Fold Changes Enpep (glutamyl aminopeptidase): 0.6 fold
- Fold Changes Eps15 (epidermal growth factor receptor pathway substrate 15): 0.7 fold
- Fold Changes Erv4 (endogenous retroviral sequence 4 (with leucine t-RNA primer)): 5.2 fold
- Fold Changes Esr1 (estrogen receptor 1 (alpha)): 6.5 fold
- Fold Changes Fcgr2b (Fc receptor, IgG, low affinity Ilb): 0.1 fold
- Fold Changes G0s2 (G0/G1 switch gene 2): 1.5 fold
- Fold Changes Galnt1 (UDP-N-acetyl-alpha-D-galactosamine:polypeptide N-acetylgalactosaminyltra): 0.5 fold
- Fold Changes Gas5 (growth arrest specific 5): 0.6 fold
- Fold Changes Gpr12 (G-protein coupled receptor 12): 0.7 fold
- Fold Changes Gpx7 (glutathione peroxidase 7): 0.3 fold
- Fold Changes Gstm5 (glutathione S-transferase, mu 5): 0.6 fold
- Fold Changes Hbb-b1 (hemoglobin, beta adult major chain): 1.2 fold
- Fold Changes Hdac2 (histone deacetylase 2): 0.8 fold
- Fold Changes Hist2h3c2 (histone 2, H3c2): 1.5 fold
- Fold Changes Hmgcl (3-hydroxy-3-methylglutaryl-Coenzyme A lyase): 0.5 fold
- Fold Changes Hoxd8 (homeo box D8): 0.6 fold
- Fold Changes Htr1a (5-hydroxytryptamine (serotonin) receptor 1A): 4.2 fold
- Fold Changes Igfbp5 (insulin-like growth factor binding protein 5): 0.6 fold
- Fold Changes Itgb1 (integrin beta 1 (fibronectin receptor beta)): 0.7 fold
- Fold Changes Itpr1 (inositol 1,4,5-triphosphate receptor 1): 0.4 fold
- Fold Changes Junb (Jun-B oncogene): 0.4 fold
- Fold Changes Klf3 (Kruppel-like factor 3 (basic)): 5.9 fold
- Fold Changes Klrb1c (killer cell lectin-like receptor subfamily B member 1C): 0.2 fold
- Fold Changes Krtap3-1 (keratin associated protein 3-1): 0.7 fold
- Fold Changes Ksr (kinase suppressor of ras): 1.8 fold
- Fold Changes Lbp (lipopolysaccharide binding protein): 0.6 fold
- Fold Changes Ldh2 (lactate dehydrogenase 2, B chain): 1.6 fold
- Fold Changes Lpl (lipoprotein lipase): 1.4 fold
- Fold Changes Lypla1 (lysophospholipase 1): 4.8 fold
- Fold Changes Macf1 (microtubule-actin crosslinking factor 1): 0.5 fold
- Fold Changes Mapk9 (mitogen activated protein kinase 9): 2.8 fold
- Fold Changes Mapre3 (microtubule-associated protein, RP/EB family, member 3): 0.4 fold
- Fold Changes Mapt (microtubule-associated protein tau): 0.5 fold
- Fold Changes Matr3 (matrin 3): 0.6 fold
- Fold Changes Mnt (max binding protein): 0.6 fold
- Fold Changes Mt1 (metallothionein 1): 0.5 fold
- Fold Changes Mt2 (metallothionein 2): 0.3 fold
- Fold Changes Muc1 (mucin 1, transmembrane): 0.5 fold
- Fold Changes Myo5a (myosin Va): 0.1 fold
- Fold Changes Ndufb3 (NADH dehydrogenase (ubiquinone) 1 beta subcomplex 3): 1.2 fold
- Fold Changes Neurod6 (neurogenic differentiation 6): 0.1 fold
- Fold Changes Nnt (nicotinamide nucleotide transhydrogenase): 1.7 fold
- Fold Changes Npc1 (Niemann Pick type C1): 0.6 fold
- Fold Changes Nras (neuroblastoma ras oncogene): 0.6 fold
- Fold Changes Orc4l (origin recognition complex, subunit 4-like (S. cerevisiae)): 0.6 fold
- Fold Changes Pcdha12 (protocadherin alpha 12): 0.4 fold
- Fold Changes Pcnt2 (pericentrin 2): 1.6 fold
- Fold Changes Pdcd4 (programmed cell death 4): 0.6 fold
- Fold Changes Pdk4 (pyruvate dehydrogenase kinase, isoenzyme 4): 0.9 fold
- Fold Changes Pigr (polymeric immunoglobulin receptor): 0.7 fold
- Fold Changes Pkm2 (pyruvate kinase, muscle): 0.5 fold
- Fold Changes Plk1 (polo-like kinase 1 (Drosophila)): 0.3 fold
- Fold Changes Prp19 (PRP19/PSO4 homolog (S. cerevisiae)): 0.5 fold
- Fold Changes Psap (prosaposin): 17.3 fold
- Fold Changes Psma3 (proteasome (prosome, macropain) subunit, alpha type 3): 0.7 fold
- Fold Changes Psmc1 (protease (prosome, macropain) 26S subunit, ATPase 1): 0.5 fold
- Fold Changes Psmd8 (proteasome (prosome, macropain) 26S subunit, non-ATPase, 8): 0.7 fold
- Fold Changes Psmd11 (proteasome (prosome, macropain) 26S subunit, non-ATPase, 11): 0.6 fold
- Fold Changes Rab2 (RAB2, member RAS oncogene family): 0.9 fold
- Fold Changes Rbm17 (RNA binding motif protein 17): 0.7 fold
- Fold Changes Retn (resistin): 1.9 fold
- Fold Changes Rhoa (ras homolog gene family, member A): 1.4 fold
- Fold Changes Rpl30 (ribosomal protein L30): 0.7 fold
- Fold Changes Rpp14 (ribonuclease P 14 kDa subunit (human)): 0.7 fold
- Fold Changes Rrad (Ras-related associated with diabetes): 0.5 fold
- Fold Changes Rtn4 (reticulon 4): 0.9 fold
- Fold Changes Rwdd1 (RWD domain containing 1): 0.6 fold
- Fold Changes Sara2 (SAR1a gene homolog 2 (S. cerevisiae)): 0.8 fold
- Fold Changes Scamp2 (secretory carrier membrane protein 2): 0.7 fold
- Fold Changes Sgk (serum/glucocorticoid regulated kinase): 0.8 fold
- Fold Changes Siat6 (sialyltransferase 6 (N-acetyllacosaminide alpha 2,3-sialyltransferase)): 2 fold
- Fold Changes Skp1a (S-phase kinase-associated protein 1A): 0.5 fold
- Fold Changes Slc2a5 (solute carrier family 2 (facilitated glucose transporter), member 5): 0.2 fold
- Fold Changes Slc38a2 (solute carrier family 38, member 2): 0.8 fold
- Fold Changes Slpi (secretory leukocyte protease inhibitor): 1.1 fold
- Fold Changes Snx2 (sorting nexin 2): 1.5 fold
- Fold Changes Sorbs1 (sorbin and SH3 domain containing 1): 0.8 fold
- Fold Changes Spr (sepiapterin reductase): 1.4 fold
- Fold Changes Sri (sorcin): 2.3 fold
- Fold Changes St13 (suppression of tumorigenicity 13): 1.5 fold
- Fold Changes Stam2 (signal transducing adaptor molecule (SH3 domain and ITAM motif) 2): 4.3 fold
- Fold Changes Strap (serine/threonine kinase receptor associated protein): 0.6 fold
- Fold Changes Tcfl1 (transcription factor-like 1): 0.7 fold
- Fold Changes Tgm3 (transglutaminase 3, E polypeptide): 2.5 fold
- Fold Changes Tm4sf3 (transmembrane 4 superfamily member 3): 0.5 fold
- Fold Changes Tnpo1 (transportin 1): 0.4 fold
- Fold Changes Tnxb (tenascin XB): 1.4 fold
- Fold Changes Top1 (topoisomerase (DNA) I): 0.5 fold
- Fold Changes Transcribed sequence with strong similarity to protein sp: P49840 (H. sapiens): 0.8 fold
- Fold Changes Transcribed sequences: 0.7 fold
- Fold Changes Tsta3 (tissue specific transplantation antigen P35B): 0.9 fold
- Fold Changes Tubg2 (tubulin, gamma 2): 1.6 fold
- Fold Changes Ubb (ubiquitin B): 0.7 fold
- Fold Changes Ube2e1 (ubiquitin-conjugating enzyme E2E 1, UBC4/5 homolog (yeast)): 0.7 fold
- Fold Changes Upf3b (UPF3 regulator of nonsense transcripts homolog B (yeast)): 0.7 fold
- Fold Changes Utrn (utrophin): 1.7 fold
- Fold Changes Vps54 (vacuolar protein sorting 54 (yeast)): 0.4 fold
- Fold Changes Wars (tryptophanyl-tRNA synthetase): 1.9 fold
- Fold Changes Xcl1 (chemokine (C motif) ligand 1): 4.7 fold
- Fold Changes Xpo7 (exportin 7): 0.7 fold
- Fold Changes Zfp101 (zinc finger protein 101): 0.2 fold
- Fold Changes Zfp289 (zinc finger protein 289): 0.6 fold
- Fold Changes Rpl10a (ribosomal protein L10A) (Table 1 (down regulation)): 0.4 fold
- Fold Changes Itgav (integrin alpha V) (Table 1, first Itgav line): 0.2 fold
- Fold Changes Itgav (integrin alpha V) (Table 1, second Itgav line): 0.7 fold
- Fold Changes Itgav (integrin alpha V) (Table 2 (up regulation)): 4.6 fold
- Fold Changes Rpl10a (ribosomal protein L10A) (Table 2 (up regulation)): 1.2 fold
